Data: patent US9751882B2, “Diaryl[A, G]quinolizidine compound, preparation method therefor, pharmaceutical composition, and uses thereof” (SHANGHAI INSTITUTE OF MATERIA MEDICA, CHINESE ACADEMY OF …, priority 2012, dated 2017)

What was measured:
[1] = molecular target: dopamine D2 receptor (Rattus norvegicus, UniProt P61169); assay: Radioligand binding affinity on dopamine D2 receptor ([3H]Spiperone); settings: D2 receptor protein expressed in HEK-293 cells
Method: (§1) The compound of the invention at different concentrations (10^−5 M-10^−11 M), an isotope receptor ligand and a receptor protein were loaded into a reaction tube, incubated at 30° C. in a water bath for 60 min, and then terminated in a refrigerator. The mixture was filtered through suction filtration using GF/C glass fiber paper on a Millipore filter (millipore) cell sample collector, and dried. The resulting sample was placed into a 0.5 mL tube, added with 500 μL of liquid scintillation fluid, and counted for measuring the intensity of radioativity.
(§2) Firstly, the above […] were dissolved in DMSO and then diluted with double distilled water to the appropriate concentration (10^−5 M-10^−11 M).
(§3) (+) Butaclamo was purchased from RBI Company, GF/C glass fiber filter paper was purchased from Whatman Co., liquid scintillation fluid (dopamine D1, D2 receptors)/liposoluble scintillation fluid (5-HT1A. 5-HT2A receptor), Beckman LS-6500 multi-function liquid scintillation counter.

[2] = molecular target: T1, 5-HT2A receptor (Homo sapiens, UniProt P28223); assay: Radioligand binding affinity on 5-HT2A receptor ([3H]-Ketanserin); settings: 5-HT2A receptor protein expressed in HEK-293 cells
T1 construct: expressed in transfected cells; host or cells: HEK-293
Method: (§4) (1) Determination of the affinity of the diarylo[a,g]quinolizines of formula (I) and derivatives thereof on dopamine D1, dopamine D2, 5-HT1A and 5-HT2A receptors.
as §1
For 5-HT2A receptor: isotope receptor ligand [3H]-Ketanserin; 5-HT2A receptor protein expressed in HEK-293 cells;
as §2, §3

[3] = molecular target: T2, 5-HT1A receptor (Homo sapiens, UniProt P08908); assay: Radioligand binding affinity on 5-HT1A receptor ([3H]8-OH-DPAT); settings: 5-HT1A receptor protein expressed in HEK-293 cells
T2 sequence (P08908 1-422): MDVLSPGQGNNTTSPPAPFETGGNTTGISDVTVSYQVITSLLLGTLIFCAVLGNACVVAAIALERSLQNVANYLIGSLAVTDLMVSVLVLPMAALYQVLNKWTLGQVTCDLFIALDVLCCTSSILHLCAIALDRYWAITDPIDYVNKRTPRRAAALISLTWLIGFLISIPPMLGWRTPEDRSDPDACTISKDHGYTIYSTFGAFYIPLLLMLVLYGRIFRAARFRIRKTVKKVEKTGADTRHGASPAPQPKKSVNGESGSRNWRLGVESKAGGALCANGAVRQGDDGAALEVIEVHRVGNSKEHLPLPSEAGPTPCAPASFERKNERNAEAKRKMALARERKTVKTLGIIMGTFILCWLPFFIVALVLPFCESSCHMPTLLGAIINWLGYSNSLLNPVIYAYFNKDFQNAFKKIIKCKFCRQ
Method: as §4, §1
For 5-HT1A receptor: isotope receptor ligand [3H]8-OH-DPAT; 5-HT1A receptor protein expressed in HEK-293 cells;
as §2, §3

[4] = molecular target: dopamine D1 receptor (Macaca mulatta, UniProt O77680); assay: Radioligand binding affinity on dopamine D1 receptor ([3H]-SCH23390); settings: D1 receptor protein expressed in HEK-293 cells
Method: as §1, §2, §3

Chain of dopamine D1 receptor (O77680 whole entry): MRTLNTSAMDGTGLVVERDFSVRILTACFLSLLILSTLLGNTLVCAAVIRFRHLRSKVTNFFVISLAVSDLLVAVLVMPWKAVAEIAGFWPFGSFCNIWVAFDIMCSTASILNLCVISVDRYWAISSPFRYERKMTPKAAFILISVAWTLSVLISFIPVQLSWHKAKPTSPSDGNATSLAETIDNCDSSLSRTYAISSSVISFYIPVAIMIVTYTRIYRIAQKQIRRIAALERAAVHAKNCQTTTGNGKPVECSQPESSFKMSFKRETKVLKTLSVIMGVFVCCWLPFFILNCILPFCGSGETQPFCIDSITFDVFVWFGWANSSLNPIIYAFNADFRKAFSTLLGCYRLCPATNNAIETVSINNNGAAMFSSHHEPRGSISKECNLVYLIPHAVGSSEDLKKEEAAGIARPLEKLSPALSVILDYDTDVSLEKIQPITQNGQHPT
T1 sequence (P28223 whole entry): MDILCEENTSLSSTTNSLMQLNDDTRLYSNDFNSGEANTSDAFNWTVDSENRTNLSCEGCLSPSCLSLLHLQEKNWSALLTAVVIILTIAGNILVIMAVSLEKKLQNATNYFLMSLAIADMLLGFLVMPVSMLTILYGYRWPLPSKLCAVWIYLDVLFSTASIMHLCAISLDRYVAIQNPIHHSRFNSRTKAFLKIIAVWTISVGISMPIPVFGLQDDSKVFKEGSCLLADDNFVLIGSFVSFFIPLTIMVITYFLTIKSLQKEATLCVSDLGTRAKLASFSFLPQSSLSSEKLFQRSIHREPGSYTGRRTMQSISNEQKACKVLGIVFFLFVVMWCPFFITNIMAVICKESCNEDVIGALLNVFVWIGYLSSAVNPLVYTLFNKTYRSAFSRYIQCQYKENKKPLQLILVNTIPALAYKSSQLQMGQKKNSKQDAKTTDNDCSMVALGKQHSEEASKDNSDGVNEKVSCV
Chain of dopamine D2 receptor (P61169 whole entry): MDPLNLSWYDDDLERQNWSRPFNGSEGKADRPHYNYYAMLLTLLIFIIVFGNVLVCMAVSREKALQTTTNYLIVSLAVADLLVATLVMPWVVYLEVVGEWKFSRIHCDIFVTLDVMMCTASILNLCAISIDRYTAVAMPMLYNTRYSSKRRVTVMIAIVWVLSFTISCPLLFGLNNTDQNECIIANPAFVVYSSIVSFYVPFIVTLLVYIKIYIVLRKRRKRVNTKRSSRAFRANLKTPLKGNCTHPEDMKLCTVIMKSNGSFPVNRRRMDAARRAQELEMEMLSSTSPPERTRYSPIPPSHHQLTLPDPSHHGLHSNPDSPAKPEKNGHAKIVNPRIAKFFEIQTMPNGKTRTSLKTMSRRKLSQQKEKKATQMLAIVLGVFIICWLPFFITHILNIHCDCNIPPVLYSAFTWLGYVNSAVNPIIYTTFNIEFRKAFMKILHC

Row | SMILES | D2 receptor inhibition % [1] [%] | IC50 [1] [nM] | Ki [1] [nM] | 5-HT2A receptor inhibition % [2] [%] | 5-HT1A receptor inhibition % [3] [%] | IC50 [3] [nM] | Ki [3] [nM] | D1 receptor inhibition % [4] [%] | IC50 [4] [nM] | Ki [4] [nM] | IC50 [2] [nM] | Ki [2] [nM]
1 | CCc1cc2c(s1)C[C@H]1c3cc(O)c(OC)cc3CCN1C2 [DS003, (S)-2-hydroxy-3-methoxy-10-ethyl-5,8,12,12a-tetrahydro-6H-benzo[a]thieno[3,2-g]quinolizine] | 98.50 | 180 ± 16.8 | 40.8 ± 3.8 | 45.15 | 92.10 | 1250 ± 237 | 998 ± 190 | 98.16 | 48.1 ± 0.68 | 26.3 ± 0.37 |  | 
2 | COc1cc2c(cc1O)[C@@H]1Cc3sc(CCCCl)cc3CN1CC2 [DS015, (S)-2-hydroxy-3-methoxy-10-(3-chloropropyl)-5,8, 12,12a-tetrahydro-6H-benzo[a]thieno[3,2-g]quinolizine] | 97.19 | 55.1 ± 6.89 | 18.4 ± 2.3 |  | 92.24 | 148 ± 28.6 | 119 ± 23 | 96.10 | 144 ± 5.35 | 77 ± 2.85 |  | 
3 | COc1cc2c(cc1O)[C@@H]1Cc3sccc3CN1CC2 [DS001, (S)-2-hydroxy-3-methoxy-5,8,12,12a-tetrahydro-6H-benzo[a]thieno[3,2-g]quinolizine] |  | 396 ± 68.2 | 88 ± 15.2 |  |  |  |  |  | 172 ± 8.49 | 87 ± 4.3 |  | 
4 | CCc1cc2c(s1)CCN1Cc3c(ccc(O)c3OC)C[C@@H]21 [AS005, (S)-2-ethyl-8-methoxy-9-hydroxy-4,7,12,12a-tetrahydro-5H-benzo[g]thieno[3,2-a]quinolizine] | 62.98 |  |  | 76.11 | 98.58 | 162 ± 3.8 | 130 ± 3.03 | 98.23 | 86.8 ± 11.3 | 47.6 ± 6.18 |  | 
5 | COc1c(O)ccc2c1CN1CCc3sc(C)cc3[C@@H]1C2 [AS003, (S)-2-methyl-8-methoxy-9-hydroxy-4,7,12,12a-tetrahydro-5H-benzo[g]thieno[3,2-a]quinolizine] | 40.31 |  |  | 90.43 | 91.91 | 514 ± 111 | 405 ± 87.1 | 99.80 | 74 ± 4.3 | 37.9 ± 2.21 | 2230 ± 46.5 | 1070 ± 22.4
6 | COc1ccc(OC)c2c1C[C@H]1c3cc(C)sc3CCN1C2 [AS032, (S)-2-methyl-8,11-dimethoxy-4,7,12,12a-tetrahydro-5H-benzo[g]thieno[3,2-a]quinolizine] | 13.75 |  |  | 30.01 | 74.09 |  |  | 96.00 | 416 ± 26.9 | 159 ± 28.9 |  | 
7 | COc1cc2c(cc1O)[C@@H]1Cc3sc(CCCl)cc3CN1CC2 [DS013, (S)-2-hydroxy-3-methoxy-10-(2-chloroethyl)-5,8,12, 12a-tetrahydro-6H-benzo[a]thieno[3,2-g]quinolizine] | 98.37 | 146 ± 7.19 | 34.4 ± 2.72 | 34.81 | 89.84 | 692 ± 102 | 553 ± 81.6 | 98.64 |  | 16.4 ± 2.81 |  | 
8 | CCCc1cc2c(s1)C[C@H]1c3cc(O)c(OC)cc3CCN1C2 [DS005, (S)-2-hydroxy-3-methoxy-10-n-propyl-5,8,12,12a-tetrahydro-6H-benzo[a]thieno[3,2-g]quinolizine] | 96.31 | 171 ± 9.5 | 38.6 ± 2.15 | 29.55 | 85.33 | 2460 ± 286 | 1970 ± 229 | 96.74 | 113 ± 12.6 | 61.7 ± 6.88 |  | 
9 | COc1cc2c(cc1O)[C@@H]1Cc3sc(CCC(C)C)cc3CN1CC2 [DS008, (S)-2-hydroxy-3-methoxy-10-(3-methylbutyl)-5,8,12, 12a-tetrahydro-6H-benzo[a]thieno[3,2-g]quinolizine] | 90.45 | 239 ± 14.7 | 79.5 ± 4.83 |  |  |  |  | 88.78 |  |  |  | 
10 | COc1cc2c(cc1OC)CN1CCc3c([nH]c4ccccc34)[C@@H]1C2 [AI001, (S)-2,3-dimethoxy-5,7,8,13,13b,14-hexahydroindolo [2′,3′:3,4]pyrido[1,2-b]isoquinoline] |  |  |  | 50.46 | 88.22 | 911 ± 130 | 728 ± 104 |  |  |  |  | 
11 | COc1ccc2c(c1OC)CN1CCc3sc(C)cc3[C@@H]1C2 [AS023, (S)-2-methyl-8,9-dimethoxy-4,7,12,12a-tetrahydro-5H-benzo[g]thieno[3,2-a]quinolizine] | 22.17 |  |  | 60.08 | 76.45 |  |  | 89.62 | 714 ± 15.7 | 357 ± 7.83 |  | 
12 | COc1c(O)ccc2c1CN1CCc3sc(C)cc3[C@H]1C2 [AS004, (R)-2-methyl-8-methoxy-9-hydroxy-4,7,12,12a-tetrahydro-5H-benzo[g]thieno[3,2-a]quinolizine] | 6.97 |  |  | 44.24 | 51.69 |  |  | 86.32 | 230 ± 44.8 | 115 ± 22.4 |  | 
13 | CCCCc1cc2c(s1)C[C@H]1c3cc(O)c(OC)cc3CCN1C2 [DS007, (S)-2-hydroxy-3-methoxy-10-n-butyl-5,8,12,12a-tetrahydro-6H-benzo[a]thieno[3,2-g]quinolizine] | 99.53 | 76.3 ± 8.46 | 17.6 ± 1.95 | 53.34 | 87.03 | 1080 ± 96.7 | 864 ± 77.3 | 97.62 | 113 ± 13 | 62.2 ± 7.13 |  | 
14 | COc1c(NC(C)=O)ccc2c1CN1CCc3sccc3[C@@H]1C2 [AS051, (S)-8-methoxy-9-acetylamino-4,7,12,12a-tetrahydro-5H-benzo[g]thieno[3,2-a]quinolizine] | 1.29 |  |  | 46.59 | 33.90 |  |  | 76.38 |  |  |  | 
15 | COc1c(N)ccc2c1CN1CCc3sccc3[C@@H]1C2 [AS050, (S)-8-methoxy-9-amino-4,7,12,12a-tetrahydro-5H-benzo[g]thieno[3,2-a]quinolizine] | 22.63 |  |  | 74.25 | 49.26 |  |  | 99.02 | 1520 ± 357 | 685 ± 72.2 |  | 
16 | COc1ccc2c(c1OC)CN1CCc3sccc3[C@@H]1C2 [AS022, (S)-8,9-dimethoxy-4,7,12,12a-tetrahydro-5H-benzo [g]thieno[3,2-a]quinolizine] | 5.21 |  |  | 32.31 | 6.60 |  |  | 69.25 |  |  |  | 
17 | COc1cc2c(cc1O)[C@@H]1Cc3sc(CC(C)C)cc3CN1CC2 [DS006, (S)-2-hydroxy-3-methoxy-10-(2-methylpropyl)-5,8, 12,12a-tetrahydro-6H-benzo[a]thieno[3,2-g]quinolizine] |  |  |  | 50.31 | 83.71 |  |  |  |  |  |  | 
18 | COc1cc2c(cc1O)[C@@H]1Cc3sc(CCCCCl)cc3CN1CC2 [DS016, (S)-2-hydroxy-3-methoxy-10-(4-chlorobutyl)-5,8,12, 12a-tetrahydro-6H-benzo[a]thieno[3,2-g]quinolizine] | 93.54 | 150 ± 23.4 | 49.9 ± 7.8 |  |  |  |  | 95.84 | 297 ± 20.1 | 158 ± 10.7 |  | 
